From US8901312B2, “Cyclic compound, method for producing cyclic compound, and method for modifying biological molecule” (JNC Corporation, priority 2010, dated 2014)
Read-outs that look alike come from different tables or passages of the source.

Columns and labels:
HEK293 cells = test: Cytotoxicity assay in living cells; assay type: cell-based; details: 0 to 80 μM, incubation overnight
Experimental: Finally, cytotoxicity assay of diyne 3 was performed in living cells. HEK293 cells were incubated and diyne 3 was added to the cells in a concentration of 0 to 80 μM, followed by incubation overnight. Morphological images of the cells after incubation, which were taken under a phase-contrast microscope and visualized with Adobe Photoshop CS2, are shown in FIG. 10.

[1] = system: azido-glycoconjugates on the surface of HEK293 cells; test: Fluorescence labeling of azido-glycoconjugates on the surface of living cells; assay type: cell-based
[2] = system: azido-HaloTag protein (GST-HaloTag protein on GSH-Sepharose resin); test: Fluorescence labeling of azido-HaloTag protein by SPDC reaction, SDS-PAGE fluorescence imaging; assay type: biochemical

Compound: C1#Cc2ccccc2C#Cc2ccccc21 [diyne 3, sym-dibenzo-1,5-cyclooctadiene-3,7-diyne]
- cytotoxicity (cell morphology, phase-contrast microscope) (HEK293 cells): did not show cytotoxicity
- reaction time at which labeling efficiency became maximum ([1]; 40 μM diyne 3, HEK293 cells with azido-glycoconjugates, 0 to 48 minutes): approximately 20 minutes
- fluorescence labeling of cell surface azido-glycoconjugates (result in words) ([1]; HEK293 cells cultured with Ac4ManNAz): a reliable fluorescence signal was detected
- fluorescence labeling efficiency of azido-HaloTag protein ([2]; sequential SPDC reaction: diyne 3, wash, then TESRA-PEO3-azide (9)): approximately 45%
- total labeling efficiency of TESRA-labeled HaloTag protein ([2]; simultaneous SPDC reaction with TESRA-PEO3-azide (9), relative to TESRA-HaloTag ligand (10) labeling taken as almost 100%): ~40%

Compound: O=C(NCCNC(=S)Nc1ccc2c(c1)C(=O)OC21c2ccc(O)cc2Oc2cc(O)ccc21)OC1Cc2ccccc2C#Cc2ccccc21 (stereo not drawn) [monoyne 22, 1-[2-{(11,12-didehydro-5,6-dihydrodibenzo[a,e]cycloocten-5-yl)oxycarbonylamino}ethyl]-3-(5-fluoresceinyl)thiourea]
- fluorescence labeling of cell surface azido-glycoconjugates (result in words) [1]: substantial difference in fluorescence labeling efficiency between the SPDC reaction and the single click reaction was hardly observed
